Laboratory results published in patent US20260130999A1, “METHODS FOR TREATING CANCERS ASSOCIATED WITH ETBR ACTIVATION” (ENB Therapeutics, Inc., priority 2022, published 2026).

System: 4T-1-HER2 mammary tumors
Assay: 4T1-HER2 mammary tumors in syngeneic female BALB/c mice treated with anti-HER2 CAR-T, BQ-788-B and anti-PD1
Assay type: in vivo
From the text: Lentivirus for expression of an anti-HER2 CAR was produced by co-transfecting 293T-17 cells with lentiviral vector pLVX-EF1α-CAR-IRES-ZsGreen1 together with the packaging plasmids pSPAX2 and pMD2.G. Splenocytes from 6-week old female BALB/c mice were isolated by density-gradient centrifugation using a lymphocyte separation medium, Histopaque, activated in 24-well plates at a density of 1×10^6 cell/ml using a mouse T Cell Activation/Expansion Kit for 2-3 days, and then transduced with pLVX-EF1α-CAR-IRES-ZsGreen1 lentivirus at the multiplicity of infection of 20 in the presence of 8 µg/mL polybrene by centrifugation at 1,500×g for 2 hours at 32° C. GFP+ transduced T cells were analyzed by flow cytometry to evaluate the lentiviral transduction efficiency.
4T1-HER2 cells (4×10^6), were resuspended in 0.1 mL PBS and mixed with 0.1 mL Matrigel and injected subcutaneously into the right back region of BALB/c female mice (6-week-old, weighed 17-20 g). Tumor growth was monitored by caliper measurement every three days.
About 14 days after 4T-1-HER2 cell injection, when the tumor diameter reaches about 6 mm in diameter, mice were randomized into eight groups for treatments (6 mice per group).
Blank T or CAR-T cells (1×10^7 cells/mice) were injected intravenously into each mouse on day 11 and day 18 post-tumor inoculation. BQ-788-B ([…]) or PBS was administered via subcutaneous injection into each mouse, starting on day 10, every two or three days for a total of 9 injections. All mice were injected intraperitoneally with 20,000 IU IL-2 once every 2 days from day 14 to […] (Note: day 0 is defined as when 4T1-HER2 cells are injected into mice). Anti-PD1 or isotype control Ig (230 ug/mouse) was injected IP every 4 days, starting on day 11 post tumor inoculation (4 injections total). The eight treatment groups are listed below: • 1) Blank T+PBS+isotype • 2) CAR-T+PBS+isotype • 3) BQ-788-B+Blank T+isotype • 4) Blank T+PBS+anti-PD1 • 5) BQ-788-B+CAR-T+ isotype • 6) CAR-T+PBS+anti-PD1 • 7) BQ-788-B+Blank T+anti-PD1 • 8) BQ-788-B+CAR-T+ anti-PD1
Tumor growth was monitored by caliper measurement every three days. On the 30th day after 4T1-HER2 cell injection, all mice were euthanized by asphyxiation with CO2 followed by cervical dislocation. All tumors were dissected out and photographed before fixation in 10% formalin.

For `[2H]C[C@@H]1CCC[C@H](C[2H])N1C(=O)N[C@@H](CC(C)(C)C)C(=O)N[C@H](Cc1cn(C(=O)OC)c2ccccc12)C(=O)N[C@H](CCCC)C(=O)O` [BQ-788-B], the “tumor volumes at day 29” value (BQ-788-B in combination with anti-PD1 and/or CAR-T therapy, compared to control, CAR-T alone, or PD-1 alone, FIG. 4) was “significantly reduced tumor volumes”, the “tumor weights at day 30” value (BQ-788-B in combination with anti-PD1 and/or CAR-T therapy, compared to control, CAR-T alone, or PD-1 alone, FIGS. 5A and 5B) was “significantly reduced tumor weights” and the “anti-tumor efficacy of CAR-T cells, of anti-PD-1 antibody therapy and of their combinations” value (addition of BQ-788-B) was “significantly enhances the anti-tumor efficacy”. The “tumor suppression at later time points” value (addition of BQ-788-B in mice treated with either anti-PD1 or CAR-T therapy) was “enhanced tumor suppression”.
